Source: US8883797B2, “Metalloenzyme inhibitor compounds” (Viamet Pharmaceuticals, Inc., priority 2011, dated 2014)
≈ marks a conversion by molar mass, not a printed value.

Tests used:
[1] = biological target: CYP3A4 (Homo sapiens (Human), UniProt P08684); experiment: biochemical
Method: (§1) B Inhibition of Liver Cytochrome P450 Enzymes
(§2) Solutions of each test compound were separately prepared at concentrations of 20000, 6000, 2000, 600, 200, and 60 μM by serial dilution with DMSO:MeCN (50:50 v/v). The individual test compound solutions were then diluted 20-fold with DMSO:MeCN:deionized water (5:5:180 v/v/v) to concentrations of 1000, 300, 100, 30, 10, and 3 μM. Mixtures of isozyme inhibitors (sulfaphenazole, tranylcypromine, and ketoconazole as specific inhibitors of isozymes 2C9, 2C19, and 3A4, respectively) were prepared containing each inhibitor at concentrations of 6000, 2000, 600, 200, 60, 20, 6, and 2 μM by serial dilution with DMSO:ACN (50:50 v/v). […]
(§3) Pooled human liver microsome suspension (20 mg/mL) was diluted with phosphate buffer to obtain a 5 mg/mL suspension. […] Separate stock solutions of each substrate were prepared in DMSO:MeCN (50:50 v/v), mixed, and diluted in phosphate buffer to obtain a single solution containing each substrate at five times its experimentally determined Km concentration. […]
(§4) Substrate solution and microsome suspension were combined in a 1:1 volume ratio, mixed, and distributed to reaction wells of a PCR plate. […] A portion of the supernatant was analyzed by gradient reverse-phase HPLC with detection by electrospray ionization triple quadrupole mass spectrometry in the positive ion mode. […]

[2] = biological target: CYP2C9 (Homo sapiens (Human), UniProt P11712); experiment: biochemical
Method: as §1, §2, §3, §4

[3] = biological target: CYP2C19 (Homo sapiens (Human), UniProt P33261); experiment: biochemical
Method: as §1, §2, §3, §4

[4] = system: C. albicans; experiment: Minimum Inhibitory Concentration (MIC) (C. albicans), CLSI M27-A2; format: cell-based; conditions: Candida albicans; about 50% growth reduction; approx. 48 h at 35 °C
Method: A. Minimum Inhibitory Concentration (MIC) (C. albicans) Compounds of the present disclosure were assessed for their ability to inhibit the growth of common strains of fungus, C. albicans using a standardized procedure (CLSI M27-A2). Stock solutions of the test compounds and standards were prepared in DMSO at 1,600 μg/mL (C. albicans). Eleven, serial, one-half dilutions of compounds were prepared in 96-well plates in RPMI+MOPS. The assay concentration ranges were 8-0.001 μg/mL (C. albicans). Cell suspensions of C. albicans were prepared and added to each well at concentrations of approximately 3.7×10^3 colony-forming-units per milliliter (cfu/mL). All testing was in duplicate. The inoculated plates were incubated for approximately 48 h at 35±1° C. At the completion of incubation the wells of each plate were evaluated visually for the presence of fungal growth. […] For QC purposes C. krusei isolate ATCC 6258 (4.0×10^3 cfu/mL) was included in the VOR assay.

Sequence of CYP2C19 (P33261 whole entry): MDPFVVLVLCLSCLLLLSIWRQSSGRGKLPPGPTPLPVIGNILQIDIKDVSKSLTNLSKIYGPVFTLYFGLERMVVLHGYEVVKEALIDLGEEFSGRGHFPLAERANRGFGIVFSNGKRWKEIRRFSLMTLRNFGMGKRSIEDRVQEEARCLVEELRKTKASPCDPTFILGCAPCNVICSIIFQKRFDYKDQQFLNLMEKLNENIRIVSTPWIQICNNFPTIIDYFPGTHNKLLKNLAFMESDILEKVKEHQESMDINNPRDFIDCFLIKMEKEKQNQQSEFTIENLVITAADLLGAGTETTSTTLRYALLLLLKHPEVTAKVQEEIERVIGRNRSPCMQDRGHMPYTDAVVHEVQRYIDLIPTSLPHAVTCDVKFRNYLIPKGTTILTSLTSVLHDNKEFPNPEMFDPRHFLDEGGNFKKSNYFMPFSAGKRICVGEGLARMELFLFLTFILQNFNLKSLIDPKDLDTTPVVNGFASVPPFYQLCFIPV
Sequence of CYP2C9 (P11712 whole entry): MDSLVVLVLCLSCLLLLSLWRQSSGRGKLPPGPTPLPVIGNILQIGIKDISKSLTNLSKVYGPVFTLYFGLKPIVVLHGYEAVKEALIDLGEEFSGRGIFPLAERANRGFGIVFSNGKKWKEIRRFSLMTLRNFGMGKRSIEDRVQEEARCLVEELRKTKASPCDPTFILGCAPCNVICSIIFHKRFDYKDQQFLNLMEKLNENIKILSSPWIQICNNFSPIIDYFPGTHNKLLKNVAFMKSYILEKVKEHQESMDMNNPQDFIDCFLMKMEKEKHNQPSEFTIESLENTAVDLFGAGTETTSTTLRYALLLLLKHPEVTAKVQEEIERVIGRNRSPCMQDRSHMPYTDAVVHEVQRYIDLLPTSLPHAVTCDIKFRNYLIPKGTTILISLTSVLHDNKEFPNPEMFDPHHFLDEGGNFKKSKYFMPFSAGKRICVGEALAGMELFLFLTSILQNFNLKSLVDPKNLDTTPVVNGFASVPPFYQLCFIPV
Sequence of CYP3A4 (P08684 whole entry): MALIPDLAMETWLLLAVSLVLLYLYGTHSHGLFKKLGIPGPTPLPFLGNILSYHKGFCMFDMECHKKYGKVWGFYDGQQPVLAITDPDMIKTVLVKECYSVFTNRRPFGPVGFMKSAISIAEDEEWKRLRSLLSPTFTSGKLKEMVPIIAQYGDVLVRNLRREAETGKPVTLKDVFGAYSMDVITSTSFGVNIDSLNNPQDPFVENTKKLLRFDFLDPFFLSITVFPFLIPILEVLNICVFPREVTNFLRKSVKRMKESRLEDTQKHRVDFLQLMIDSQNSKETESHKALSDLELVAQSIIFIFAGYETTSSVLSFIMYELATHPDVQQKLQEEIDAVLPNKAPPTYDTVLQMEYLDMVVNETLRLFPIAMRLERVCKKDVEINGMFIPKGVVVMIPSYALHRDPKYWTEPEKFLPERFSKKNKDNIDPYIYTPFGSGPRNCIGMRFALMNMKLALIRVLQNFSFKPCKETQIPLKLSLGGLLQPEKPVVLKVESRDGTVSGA

| Compound | IC50 [1] [µM] | IC50 [2] [µM] | IC50 [3] [µM] | MIC [4] [µg/mL] |
| --- | --- | --- | --- | --- |
| OC(Cn1cnnn1)(c1ccc(F)cc1F)C(F)(F)c1ccc2cc(Br)ccc2n1 (stereo not drawn) [Compound 9, 1-(6-Bromoquinolin-2-yl)-2-(2,4-difluorophenyl)-1,1-difluoro-3-(1H-tetrazol-1-yl)propan-2-ol] | 11 | 13 | 12 | 0.016 (≈ 0.0332 µM) |
| OC(Cn1cnnn1)(c1ccc(F)cc1F)C(F)(F)c1cnc2cc(Cl)ccc2n1 (stereo not drawn) [Compound 10, 1-(6-Chloroquinoxalin-2-yl)-2-(2,4-difluorophenyl)-1,1-difluoro-3-(1H-tetrazol-1-yl)propan-2-ol] | 45 | 42 | 29 | 0.125 (≈ 0.285 µM) |
| OC(Cn1cncn1)(Cn1cncn1)c1ccc(F)cc1F [Fluconazole, reference compound] |  |  |  | 0.5 (≈ 1.63 µM) |
